{"source": "patent US20030207813A1", "about": "“Retroviral protease inhibitor combinations” (priority 1995, published 2003)", "key": {"HIV-1 strain SF-162": {"system": "HIV-1 strain SF-162", "assay": "Acute infectivity assay in PHA-activated donor lymphocytes, isolate SF162", "assay_type": "cell-based", "conditions": "Human immunodeficiency virus 1, Lymphocyte", "description": "(§1) Approximately 3×10^7 cells are activated for 48 hours with about 3-5 μg/ml PHA in RPMI continuing 10% fetal bovine serum and IL-2 (10 U/ml). Quantitated virus stocks are added to the activated lymphocyte suspension at a multiplicity of infection of about 0.001-0.01. The cell-virus suspension is incubated at 37° C. for 2 hours to allow virus absorption. The residual virus inoculum is removed by centrifugation and the cells are resuspended in RPMI containing 10% FBS and 10 U/ml IL-2. These infected cells are added to the test-article diluted in complete tissue culture medium from a stock (10 mg/ml) in DMSO in 96 well microtiter plates to give about 5×10^5 cells per well per 200 μl. Infected, untreated cells and cells treated with DMSO alone (0.1%) or either AZT or DDI were used as controls. The cultures were examined for syncytia formation on days 7 and 11 post-infection or the supernants tested for reverse transcriptase activity or p24 antigen.\n(§2) RF represents the HIV-1 strain HIV-LRF and RFR represents a mixture of resistant strains obtained by selection of RF against the compound of Example 1. RFR comprises a mixture of viral strains having protease genotypes of G48V (14/40 clones); G48V, V82A (18/40 clones); G48V, L90S (2/40 clones); G48V, 154T, V82A (1/40 clones); G48M (1/40 clones); G48V, Q61H (1/40 clones); V13I, G48V (1/40 clones); G48V, F53L, V82A (1/40 clones); and G48V, V82A, C95Y (1/40 clones). RFR2 represents a mixture of resistant strains obtained by cloning RFR by three rounds of growth at limiting dilution. RFR2 comprises a mixture of viral strains having protease genotypes of G48V, V82A (13/15 clones); G17E, G48V, V82A (1/15 clones); and G48V, V82A, N37D, N88D (1/15 clones). RFRR represents a mixture of resistant strains obtained by selection of RF against the compounds of Examples 1 and 2 and then cloning by three rounds of growth at limiting dilution. RFRR comprises a mixture of viral strains having protease genotypes of G48V, 154T, L63P, V82A (7/9 clones); G48V, 154T, L63P, V82A, N88S (1/9 clones); and G48V, 154T, L63P, G73M, V82A (1/9 clones). SF162 represents the HIV-1 strain SF-162 and SF162R represents a mixture of resistant strains obtained by selection of SF162 against the compound of Example 1. SF162R comprises a mixture of viral strains having protease genotypes of M461, F53L, L63P, A71V, N88D (2/3 clones); and M46I, F53L, L63P, A71V, N88D, Q92R (1/3 clones). 89-959 represents the HIV-1 strain 89-959 and 89-959R represents a mixture of resistant strains obtained by selection of 89-959 against the compound of Example 2. 89-959R comprises a mixture of viral strains having protease genotypes of N88S (4/5 clones); and D25N, T26A, D30N, D37N, R41K, G73D, R87K, N88S (1/4 clones). NL4 represents the HIV-1 strain HIV-1NL4-3. NL4(G48V) represents a strain having a synthetically generated site-directed mutation in the protease from glycine to valine at amino acid position number 48. NL4(I84V) represents a strain having a synthetically generated site-directed mutation in the protease from isoleucine to valine at amino acid position number 84. NL4(R8Q,M46I) represents a strain having synthetically generated site-directed mutations in the protease from arginine to glutamine at amino acid position number 8 and methionine to isoleucine at amino acid position number 46. NL4(P22-538) represents a mixture of resistant strains obtained by selection of HIV-1NL4-3 against the compound of Example 10 after 22 passages comprising protease genotypes M46I, L63P, A71V, V82F, I84V (4/10); M46I, L63P, V82F, I84V (3/10); and M46I, A71V, V82F, I84V (3/10). NL4(P37-538) represents resistant strains obtained by selection of HIV-1NL4-3 against the compound of Example 10 after 37 passages comprising protease genotype M46I, L63P, A71V, 184A. NL4(538/524) represents resistant strains obtained by selection of NL4(P22-538) against the compound of Example 5 after 24 passages comprising protease genotype M46I, L63P, A71V, 184A. […]"}, "HIV-1 strain 89-959": {"system": "HIV-1 strain 89-959", "assay": "Acute infectivity assay in PHA-activated donor lymphocytes, isolate 89-959", "assay_type": "cell-based", "conditions": "Human immunodeficiency virus 1, Lymphocyte, Table 3, footnote marks show values of the same experiment, read-out: Virus Isolate (EC50 ng/mL) 89-959", "description": "as §1, §2"}, "[1]": {"system": "89-959R (resistant strains selected from 89-959 against Example 2)", "assay": "Acute infectivity assay in PHA-activated donor lymphocytes, resistant isolate 89-959R", "assay_type": "cell-based, HIV-1", "conditions": "Human immunodeficiency virus 1, Lymphocyte, read-out: Virus Isolate (EC50 ng/mL) 89-959R", "description": "as §1, §2"}, "[2]": {"conditions": "Table 1, read-out: Virus Isolate (EC50 ng/mL) SF162"}, "[3]": {"conditions": "Table 2, read-out: Virus Isolate (EC50 ng/mL) SF162"}}, "note": "Read-outs that look alike come from different tables or passages of the source.", "data": [{"smiles": "CNCC(=O)N[C@H](C(=O)N[C@@H](Cc1ccccc1)[C@H](O)CN(CCC(C)C)C(=O)NC(C)(C)C)C(C)(C)C", "note": "[Example 2, (2R,3S)-3-(N-methylaminoacetyl-L-tert-butylglycinyl)amino-1-(N-isoamyl-N-(tert-butylcarbamoyl))amino-4-phenyl-2-butanol]", "values": [{"measurement": "EC50", "setting": "HIV-1 strain SF-162; [2]", "result": 2, "unit": "ng/mL"}, {"measurement": "EC50", "setting": "HIV-1 strain 89-959", "result": 100, "unit": "ng/mL"}, {"measurement": "EC50", "setting": "[1]; Table 3, (experiment ‡)", "result": 872, "unit": "ng/mL"}, {"measurement": "EC50", "setting": "[1]; Table 3, experiments † and §", "result": 395, "unit": "ng/mL"}]}, {"smiles": "CC(C)(C)NC(=O)[C@@H]1CC2CCCC[C@@H]2CN1C[C@@H](O)[C@H](Cc1ccccc1)NC(=O)[C@H](CC(N)=O)NC(=O)c1ccc2ccccc2n1", "note": "(stereo in doubt) [Example 6, N-tert-Butyl decahydro-2-[2(R)-hydroxy-4-phenyl-3(S)-[[N-(2-quinolylcarbonyl)-L-asparaginyl]amino]butyl]-(4aR,8aS)-isoquinoline-3(S)-carboxamide]", "values": [{"measurement": "EC50", "setting": "HIV-1 strain SF-162; [2]", "result": 2, "unit": "ng/mL"}, {"measurement": "EC50", "setting": "HIV-1 strain 89-959", "result": 4, "unit": "ng/mL"}, {"measurement": "EC50", "setting": "[1]; Table 3, (experiment ‡)", "result": 6, "unit": "ng/mL"}]}, {"smiles": "CC(C)CN(C[C@@H](O)[C@H](Cc1ccccc1)NC(=O)[C@H](CC(N)=O)NC(=O)c1ccc2ccccc2n1)S(=O)(=O)NC(C)(C)C", "note": "[Example 8, N-[3-[N^2-[N^1-(1,1-dimethylethyl)aminosulfonyl]-N^2-(2-methylpropyl)amino]-2R-hydroxy-1S-(phenylmethyl)propyl]-2S-[(2-quinolinylcarbonyl)amino]butanediamide]", "values": [{"measurement": "EC50", "setting": "HIV-1 strain SF-162; [3]", "result": 1, "unit": "ng/mL"}, {"measurement": "EC50", "setting": "HIV-1 strain 89-959", "result": 12, "unit": "ng/mL"}, {"measurement": "EC50", "setting": "[1]; Table 3, experiments † and §", "result": 11, "unit": "ng/mL"}]}, {"smiles": "CC(C)CCN(C[C@@H](O)[C@H](Cc1ccccc1)NC(=O)[C@H](CC(N)=O)NC(=O)c1ccc2ccccc2n1)C(=O)NC(C)(C)C", "note": "(relative stereo) [Example 7, [1S-[1R*(R*),2S*]]-N^1-[3-[[[(1,1-dimethylethyl)amino]carbonyl](3-methylbutyl)amino]-2-hydroxy-1-(phenylmethyl)propyl]-2-[(2-quinolinylcarbonyl)amino]-butanediamide]", "values": [{"measurement": "EC50", "setting": "HIV-1 strain SF-162; [3]", "result": 1, "unit": "ng/mL"}, {"measurement": "EC50", "setting": "HIV-1 strain 89-959", "result": 13, "unit": "ng/mL"}, {"measurement": "EC50", "setting": "[1]; Table 3, experiments † and §", "result": 12, "unit": "ng/mL"}]}, {"smiles": "CC(C)(C)NC(=O)[C@@H]1CN(Cc2cccnc2)CCN1C[C@@H](O)C[C@@H](Cc1ccccc1)C(=O)N[C@H]1c2ccccc2C[C@H]1O", "note": "[Example 5, N-(2(R)-Hydroxy-1(S)-indanyl)-2(R)-phenylmethyl-4(S)-hydroxy-5-(1-(4-(3-pyridylmethyl)-2(S)-N′-(t-butylcarboxamido)-piperazinyl))-pentaneamide]", "values": [{"measurement": "EC50", "setting": "HIV-1 strain SF-162; [2]", "result": 4, "unit": "ng/mL"}, {"measurement": "EC50", "setting": "HIV-1 strain 89-959", "result": 36, "unit": "ng/mL"}, {"measurement": "EC50", "setting": "[1]; Table 3, (experiment ‡)", "result": 38, "unit": "ng/mL"}, {"measurement": "EC50", "setting": "[1]; Table 3, experiments † and §", "result": 5, "unit": "ng/mL"}]}, {"smiles": "CC(C)CN(C[C@@H](O)[C@H](Cc1ccccc1)NC(=O)[C@H](CC(N)=O)NC(=O)c1ccc2ccccc2n1)C(=O)NC(C)(C)C", "note": "(relative stereo) [Example 1, [1S-[1R*(R*),2S*]]-N^1-[3-[[[(1,1-dimethylethyl)amino]carbonyl])2-methylpropyl)amino]-2-hydroxy-1-(phenylmethyl)propyl]-2-[(2-quinolinylcarbonyl)amino]-butanediamide]", "values": [{"measurement": "EC50", "setting": "HIV-1 strain SF-162; [2]", "result": 31, "unit": "ng/mL"}, {"measurement": "EC50", "setting": "HIV-1 strain SF-162; [3]", "result": 2, "unit": "ng/mL"}, {"measurement": "EC50", "setting": "HIV-1 strain 89-959", "result": 96, "unit": "ng/mL"}, {"measurement": "EC50", "setting": "[1]; Table 3, (experiment ‡)", "result": 37, "unit": "ng/mL"}, {"measurement": "EC50", "setting": "[1]; Table 3, experiments † and §", "result": 5, "unit": "ng/mL"}]}]}
